Results on four molecules are retold here after publication PMC12583774 (Nature Communications, 2025).

This assay addresses SARS-CoV-2 NSP14 (Severe acute respiratory syndrome coronavirus 2, UniProt P0DTD1). Type of assay: binding.

For `Nc1nc2c(ncn2[C@@H]2O[C@H](COP(=O)(O)OP(=O)(O)OP(=O)(O)OC[C@H]3O[C@@H](n4cnc5c(=O)[nH]c(N)nc54)[C@H](O)[C@@H]3O)[C@@H](O)[C@H]2O)c(=O)[nH]1` [GpppG, G(5′)ppp(5′)G RNA Cap Structure Analog], the Tm changes result was “negligible Tm changes”.

Take `Nc1ncnc2c1ncn2[C@@H]1O[C@H](CSCC[C@H](N)C(=O)O)[C@@H](O)[C@H]1O` [SAH]: the “Tm shift, maximum reached” value is at most 10.0 °C.

Regarding `Cn1c[n+]([C@@H]2O[C@H](COP(=O)(O)OP(=O)([O-])OP(=O)(O)OC[C@H]3O[C@@H](n4cnc5c(=O)[nH]c(N)nc54)[C@H](O)[C@@H]3O)[C@@H](O)[C@H]2O)c2nc(N)[nH]c(=O)c21` [m7GpppG], the Tm changes result is “negligible Tm changes”.

For `C[S+](CC[C@H](N)C(=O)[O-])C[C@H]1O[C@@H](n2cnc3c(N)ncnc32)[C@H](O)[C@@H]1O` (stereo partly shown) [SAM, S-adenosylmethionine], the Tm changes result is “negligible Tm changes”.
